Assay: IAM-HPLC affinity to phospholipids (CHIIAM, gradient elution)
Type: physicochemical
Details: IAM.PC.DD2 column, gradient 0-85% acetonitrile, 10 mM phosphoric buffer pH 7.4, 30.0 °C
Description: Thus, the CHI/CHIIAM values range from 0 to 100, corresponding to the concentration of acetonitrile in the mobile phase and reflecting the nature of the target compound: low and high values correspond to hydrophilic and lipophilic molecules, respectively.
All the HPLC experiments were carried out using a Prominence-1 LC-2030C 3D HPLC system (Shimadzu, Japan) equipped with a Diode-Array Detection (DAD) detector and an IAM.PC.DD2 column (10 × 4.6 mm; particle size 10.0 µm with an IAM guard column; Regis Technologies, Morton Grove, IL, USA). The LabSolution system (version 5.90, Shimadzu, Japan) was applied to control the HPLC system and for data collection. Before analysis, stock solutions of solutes were diluted to obtain concentrations of 100 μg/mL; the injected volume was 5 μL. The IAM-HPLC analyses were carried with a linear gradient of 0–85% phase B (where phase A was a 10 mM phosphoric buffer at pH 7.4 and phase B was acetonitrile) at a flow rate of 1.5 mL/min. The temperature of the chromatographic column was controlled and set to 30.0 °C and the analysis time was 6.5 min. The CHIIAM indices of the studied compounds were obtained using a calibration set of reference substances using the protocol proposed by Valko et al. [33]. Each HPLC analysis was run in triplicate.
In the case of Cc1cc(C)c2c(=O)o[nH]c2n1 [Compound 14], the CHIIAM was “migrated together with the front of the mobile phase”. With Cc1cc(C)c2c(=O)on(C(=O)c3ccccc3)c2n1 [Compound 9] the CHIIAM was 29.99. For Cn1oc(=O)c2cc3cc(Cl)ccc3nc21 [Compound 21], the CHIIAM was 33.40.

Assay: not given
Parameters: method as in PMID 31779124
Details: RP-LC, determined previously; cited from earlier work
For Cn1oc(=O)c2cc3ccccc3nc21 [Compound 3], the logkw is given as 2.87. In the case of Cc1cc(C)c2c(=O)on(C)c2n1 [Compound 10], the logkw is given as 2.58. For C#CCn1oc(=O)c2c(C)cc(C)nc21 [Compound 16], the logkw is listed as 2.81. For Cc1cc2cc3c(=O)on(C)c3nc2cc1C [Compound 22], the logkw is given as 3.50. In the case of Cn1oc(=O)c2cc3cc(F)ccc3nc21 [Compound 20], the logkw is given as 2.97. In the case of CC(=O)n1oc(=O)c2cc3ccccc3nc21 [Compound 4], the logkw is given as 2.79. In the case of CC(=O)n1oc(=O)c2c(C)cc(C)nc21 [Compound 7], the logkw is given as 2.53. For COc1cc(Cn2oc(=O)c3c(C)cc(C)nc32)cc(OC)c1OC [Compound 18], the logkw is given as 3.67. For CCCn1oc(=O)c2c(C)cc(C)nc21 [Compound 15], the logkw is listed as 3.28. For O=C(c1ccccc1)n1oc(=O)c2cc3ccccc3nc21 [Compound 5], the logkw is given as 3.76. In the case of Cc1cc(C)c2c(=O)on(C(=O)c3ccc(F)cc3)c2n1 [Compound 17], the logkw is listed as 3.70. In the case of Cc1cc(C)c2c(=O)o[nH]c2n1 [Compound 14], the logkw is listed as 2.07. In the case of Cc1ccc2nc3c(cc2c1)c(=O)on3C [Compound 26], the logkw is given as 3.24. For O=c1onc2[nH]c3ccccc3cc1-2 [Compound 1], the logkw is given as 2.36. In the case of CCn1oc(=O)c2c(C)cc(C)nc21 [Compound 8], the logkw is listed as 2.90. In the case of COc1ccc(OC)c2nc3c(cc12)c(=O)on3C [Compound 25], the logkw is given as 3.23. In the case of CCCCn1oc(=O)c2c(C)cc(C)nc21 [Compound 13], the logkw is given as 3.69. For Cc1cc(C)c2c(=O)on(Cc3ccccc3)c2n1 [Compound 6], the logkw is listed as 3.68. In the case of COc1ccc2nc3c(cc2c1)c(=O)on3C [Compound 19], the logkw is given as 3.14. For Cc1ccc2cc3c(=O)on(C)c3nc2c1 [Compound 24], the logkw is listed as 3.21. In the case of Cc1cc(C)c2c(=O)on(C(=O)c3ccccc3)c2n1 [Compound 9], the logkw is given as 2.77. For COc1cc(Cn2oc(=O)c3c(C)cc(C)nc32)cc(OC)c1 [Compound 11], the logkw is given as 3.83. For Cn1oc(=O)c2cc3cc(Cl)ccc3nc21 [Compound 21], the logkw is listed as 3.33. In the case of O=c1on(Cc2ccccc2)c2nc3ccccc3cc12 [Compound 2], the logkw is given as 3.98.
